Laboratory results as given in article PMC6930469, “Tetrandrine Interaction with ABCB1 Reverses Multidrug Resistance in Cancer Cells Through Competition with Anti-Cancer Drugs Followed by Downregulation of ABCB1 Expression” (Molecules, 2019).

Biological target: ABCB1 (P-glycoprotein) (Homo sapiens, UniProt P08183)
Experiment: Vanadate-sensitive ABCB1 ATPase stimulation in cell membranes (PREDEASY kit); also [3H]-paclitaxel accumulation/efflux in KB-C2 cells
Type: biochemical

Sequence of ABCB1 (P-glycoprotein) (P08183 whole entry): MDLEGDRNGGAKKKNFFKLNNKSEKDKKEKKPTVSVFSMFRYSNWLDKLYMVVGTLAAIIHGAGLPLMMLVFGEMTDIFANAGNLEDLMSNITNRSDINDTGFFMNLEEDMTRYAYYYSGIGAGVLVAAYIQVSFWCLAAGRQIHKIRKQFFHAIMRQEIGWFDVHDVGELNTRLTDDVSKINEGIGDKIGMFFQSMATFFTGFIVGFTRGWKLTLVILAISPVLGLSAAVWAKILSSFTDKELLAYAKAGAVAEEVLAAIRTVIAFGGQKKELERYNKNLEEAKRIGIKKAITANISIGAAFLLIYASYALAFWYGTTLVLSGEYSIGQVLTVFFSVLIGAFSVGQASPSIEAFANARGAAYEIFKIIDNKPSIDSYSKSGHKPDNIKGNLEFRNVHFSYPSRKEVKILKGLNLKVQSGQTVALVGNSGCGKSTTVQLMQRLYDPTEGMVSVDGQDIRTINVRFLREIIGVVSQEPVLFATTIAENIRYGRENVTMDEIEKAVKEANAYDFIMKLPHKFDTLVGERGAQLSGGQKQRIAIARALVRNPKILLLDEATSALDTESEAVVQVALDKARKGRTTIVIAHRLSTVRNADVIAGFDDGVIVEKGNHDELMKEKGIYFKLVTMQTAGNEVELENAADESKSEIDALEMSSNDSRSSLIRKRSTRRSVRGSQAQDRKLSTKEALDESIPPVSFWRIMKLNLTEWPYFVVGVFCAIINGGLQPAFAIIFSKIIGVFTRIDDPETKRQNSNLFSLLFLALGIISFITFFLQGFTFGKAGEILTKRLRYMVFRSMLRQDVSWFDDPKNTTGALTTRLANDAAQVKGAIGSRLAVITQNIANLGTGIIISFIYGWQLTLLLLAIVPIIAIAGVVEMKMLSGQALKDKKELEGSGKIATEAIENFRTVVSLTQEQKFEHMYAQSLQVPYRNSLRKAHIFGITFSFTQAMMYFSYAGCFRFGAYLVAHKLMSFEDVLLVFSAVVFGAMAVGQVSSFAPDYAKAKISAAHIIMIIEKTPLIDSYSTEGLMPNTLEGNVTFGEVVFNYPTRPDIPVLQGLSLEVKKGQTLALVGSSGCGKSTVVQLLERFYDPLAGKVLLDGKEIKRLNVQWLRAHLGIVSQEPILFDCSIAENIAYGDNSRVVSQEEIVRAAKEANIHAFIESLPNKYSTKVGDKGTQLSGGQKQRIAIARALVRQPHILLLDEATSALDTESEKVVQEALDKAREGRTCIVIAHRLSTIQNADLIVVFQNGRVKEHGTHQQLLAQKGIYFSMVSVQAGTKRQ

SMILES: COc1ccc2cc1Oc1ccc(cc1)C[C@H]1c3cc(c(OC)cc3CCN1C)Oc1c(OC)c(OC)cc3c1[C@H](C2)N(C)CC3 [tetrandrine]
- EC50: 470 nM
